From patent US11596633B2, “SHP2 inhibitor compositions and methods for treating cancer” (Revolution Medicines, Inc., priority 2017, dated 2023)

Legend:
Calu-1 = assay: 3D cell viability (CTG); format: cell-based; conditions: Homo sapiens; Calu-1, KRAS G12C, 3D culture
SNU-601 = assay: 3D cell viability (CTG); format: cell-based; conditions: SNU-601, KRAS G12D, 3D culture
HPAC = assay: 3D cell viability (CTG); format: cell-based; conditions: Homo sapiens, KRAS G12D, 3D culture
NCI-H727 = assay: 3D cell viability (CTG); format: cell-based; conditions: Homo sapiens; NCI-H727, KRAS G12V, 3D culture
SW900 = assay: 3D cell viability (CTG); format: cell-based; conditions: Homo sapiens; SW900, KRAS G12V, 3D culture
Experimental: To evaluate cell viability in 3D culture, cells in logarithmic growth phase were plated in growth medium containing 0.65% methylcellulose at an optimum seeding density. Cells were incubated overnight prior to treatment with different concentrations of the test article. Cells were cultured for an additional seven days and cell viability assessed using the CellTiterGlo™ (CTG) reagent, according to the manufacturer's instructions. In some instances, cells were grown in 3D culture as spheroids. Briefly, 2500 cells/well were seeded in round bottom ultra-low attachment 96-well plates (Corning) in growth media supplemented with 10% fetal bovine serum and 1% penicillin/streptomycin, and allowed to form spheroids for 72 hours at 37° C. in 5% CO2. […] Following drug exposure for five days, cell viability in spheroids was determined using the CellTiter-Glo assay kit. […] After one day in culture, cells were treated with the test article, which was then replenished every three days. Cells were maintained in culture for 10 days until the control wells reached confluency at which time the cells were fixed and stained with crystal violet.

NCI-H1155 = assay: 3D cell viability (CTG); format: cell-based; conditions: Homo sapiens; NCI-H1155, KRAS Q61H, 3D culture
SNU-668 = assay: 3D cell viability (CTG); format: cell-based; conditions: SNU668; SNU-668, KRAS Q61K, 3D culture
pERK in NCI-H1838 cells = assay: p-ERK AlphaLisa SureFire; format: cell-based; conditions: for p-ERK: NCI-H1838 (NF1 LOF)
Experimental: (§1) Cells were plated at ˜20×10^3 cells per well and following overnight incubation were washed with serum-free media. Cells were then incubated for one hour with increasing concentrations of the test article in serum-free media containing 0.2% BSA prior to termination of the assay and measurement of pERK levels in cellular lysates by AlphaLisa SureFire Ultra kit conducted according to the manufacturer's instructions.

p-ERK1/2 in H358 cells = assay: p-ERK AlphaLisa SureFire; format: cell-based, human; conditions: H358 cells (KRAS G12C)
Experimental: as §1

RAS-GTP in H358 cells = assay: RAS-GTP pulldown (Raf-RBD); format: cell-based, human
Experimental: To determine the effects of small molecules on levels of activated RAS-GTPase, cell lines of interest were cultured under standard 2D culture conditions. Cells were seeded and following overnight incubation incubated at 37° C. with vehicle (DMSO) or test article(s). After an appropriate incubation period, cells were washed and cell lysis buffer added to prepare a cell lysate. The levels of Ras-GTP in the lysates were determined using affinity purification of a Raf-RBD (Ras binding domain of Raf)/GTP-Ras complex. In one approach, the Pierce Active Ras Pulldown and Detection Kit was used. Briefly, clarified lysates (500 μg total protein, quantified by BCA) were mixed with glutathione resin, which had been preincubated with GST-Raf-RBD. The mixture was vortexed and incubated at 4° C. for 1 hour with gentle rocking. The resin was washed three times with lysis buffer and bound Ras-GTP eluted by addition of 2× reducing sample buffer. […]
To determine the effects of small molecules on levels of activated RAS-GTPase, cell lines of interest were cultured under standard 2D culture conditions. […] The levels of Ras-GTP in the lysates were determined using affinity purification of a Raf-RBD (Ras binding domain of Raf)/GTP-Ras complex. […] Briefly, clarified lysates (500 μg total protein, quantified by BCA) were mixed with glutathione resin which had been preincubated with GST-Raf-RBD. […]

[1] = test system: RAS-GTP in NCI-H1838 cells; assay: RAS-GTP pulldown (Raf-RBD); format: cell-based; conditions: NCI-H1838 (NF1 LOF)
Experimental: (§2) To determine the effects of small molecules on levels of activated RAS-GTPase, cell lines of interest were cultured under standard 2D culture conditions. Cells were seeded and following overnight incubation incubated at 37° C. with vehicle (DMSO) or test article(s). After an appropriate incubation period, cells were washed and cell lysis buffer added to prepare a cell lysate. The levels of Ras-GTP in the lysates were determined using affinity purification of a Raf-RBD (Ras binding domain of Raf)/GTP-Ras complex. In one approach, the Pierce Active Ras Pulldown and Detection Kit was used. Briefly, clarified lysates (500 μg total protein, quantified by BCA) were mixed with glutathione resin, which had been preincubated with GST-Raf-RBD. The mixture was vortexed and incubated at 4° C. for 1 hour with gentle rocking. The resin was washed three times with lysis buffer and bound Ras-GTP eluted by addition of 2× reducing sample buffer. Eluted proteins were separated by SDS-PAGE using a 4-15% Tris-glycine gel (BioRad). Proteins were transferred to a nitrocellulose membrane for western blot using an anti-Ras antibody (Thermofisher, 1:200) and a Licor IRDye-800 anti-mouse secondary antibody (1:20,000). The Licor Odyssey CLx was used for visualization.
as §2, with “resin” for “resin,”

p-ERK1/2 in H1792 cells = assay: p-ERK AlphaLisa SureFire; format: cell-based; conditions: H1792 cells (KRAS G12C)
Experimental: as §1

pERK in A375 cells = assay: p-ERK AlphaLisa SureFire; format: cell-based; conditions: A375 (Class I BRAF V600E)
Experimental: as §1

pERK in Cal-12T cells = assay: p-ERK AlphaLisa SureFire; format: cell-based; conditions: Cal-12T (Class III BRAF G466V/+)
Experimental: as §1

pERK in MeWo cells = assay: p-ERK AlphaLisa SureFire; format: cell-based
Experimental: as §1

pERK in NCI-H1666 cells = assay: p-ERK AlphaLisa SureFire; format: cell-based; conditions: NCI-H1666 (Class III BRAF G466V/+)
Experimental: as §1

pERK in NCI-H508 cells = assay: p-ERK AlphaLisa SureFire; format: cell-based; conditions: NCI-H508 (Class III BRAF G596R/+)
Experimental: as §1

NF1 LOF cell lines = conditions: 3D culture, CTG Day 7
Experimental: (§3) To evaluate cell viability in 3D culture, cells in logarithmic growth phase were plated in growth medium containing 0.65% methylcellulose at an optimum seeding density. Cells were incubated overnight prior to treatment with different concentrations of the test article. Cells were cultured for an additional seven days and cell viability assessed using the CellTiterGlo™ (CTG) reagent, according to the manufacturer's instructions. In some instances, cells were grown in 3D culture as spheroids. Briefly, 2500 cells/well were seeded in round bottom ultra-low attachment 96-well plates (Corning) in growth media supplemented with 10% fetal bovine serum and 1% penicillin/streptomycin, and allowed to form spheroids for 72 hours at 37° C. in 5% CO2. […] Following drug exposure for five days, cell viability in spheroids was determined using the CellTiter-Glo assay kit. H1838 cells were seeded at 5×10^3 cells per well of a 12-well plate. After one day in culture, cells were treated with the test article, which was then replenished every three days.

YUHEF melanoma cell line = conditions: YUHEF (NF1 Q853*/FS-indel), 3D culture
Experimental: as §3

Q: How did the IC50 (Calu-1) turn out when `Nc1nc(N2CCC3(CCC[C@H]3N)CC2)cnc1Sc1ccnc(Cl)c1Cl` [Compound A] was run?
A: > 10 µM

Q: And the IC50 (SNU-601)?
A: 2.9 µM

Q: What about the IC50 (HPAC) of the same molecule?
A: > 10 µM

Q: And the IC50 (NCI-H727)?
A: 0.3 µM

Q: What about the IC50 (SW900) of the same molecule?
A: > 10 µM

Q: What about the IC50 (NCI-H1155) of the same molecule?
A: > 10 µM

Q: And the IC50 (SNU-668)?
A: > 10 µM

Q: And the p-ERK (pERK in NCI-H1838 cells)?
A: potently inhibited

Q: What about the “inhibition of p-ERK1/2 levels” value (p-ERK1/2 in H358 cells) of the same molecule?
A: concentration-dependent inhibition

Q: What about the “Ras activation (levels of Ras-GTP)” value (RAS-GTP in H358 cells; H358 cells) of the same molecule?
A: inhibited

Q: And the RAS-GTP levels [1]?
A: inhibited

Q: And the “feedback-driven RAS-GTP accumulation” value ([1]; MEK inhibition by trametinib)?
A: suppressed this effect

Q: How did the “inhibition of p-ERK1/2 levels” value (p-ERK1/2 in H1792 cells) turn out when `Cc1nc(N2CCC3(CC2)CO[C@@H](C)[C@H]3N)c(CO)nc1-c1cccc(Cl)c1Cl` [Compound B] was run?
A: concentration-dependent inhibition

Q: What about the pERK levels (pERK in A375 cells) of the same molecule?
A: failed to suppress

Q: What about the pERK levels (pERK in Cal-12T cells) of the same molecule?
A: suppression

Q: What about the IC50 (pERK in MeWo cells; Homo sapiens, MeWo, 1 h, read-out: geometric mean IC50 for reduction in pERK) of the same molecule?
A: 24 nM

Q: And the pERK (pERK in MeWo cells; MeWo (NF1 LOF))?
A: suppression

Q: What about the pERK levels (pERK in NCI-H1666 cells) of the same molecule?
A: suppression

Q: What about the IC50 (pERK in NCI-H1838 cells; Homo sapiens, NCI-H1838, 1 h, read-out: geometric mean IC50 for reduction in pERK) of the same molecule?
A: 29 nM

Q: What about the p-ERK (pERK in NCI-H1838 cells) of the same molecule?
A: suppression

Q: And the pERK levels (pERK in NCI-H508 cells)?
A: suppression

Q: What about the “inhibition of p-ERK1/2 levels” value (p-ERK1/2 in H358 cells) of the same molecule?
A: concentration-dependent inhibition

Q: And the “RAS-GTP accumulation resulting from MEK inhibition by trametinib” value (RAS-GTP in H358 cells; H358 (KRAS G12C), 6 hour and 24 hour)?
A: suppressed

Q: What about the RAS-GTP levels [1] of the same molecule?
A: downregulation

Q: And the “NF1 LOF cell lines whose proliferation exhibited sensitivity” value (NF1 LOF cell lines)?
A: 3/4

Q: And the effect on proliferation (YUHEF melanoma cell line)?
A: No effect
